Assay results: ChEMBL document CHEMBL1201862, “PubChem BioAssay data set” (2004)
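The compound was tested at five concentrations on cells cultured in 96-well plates, with a 48-hour exposure period. GI50 = concentration required for 50% inhibition of growth.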 Active and inactive are the calls of the source. Rule as the data show it: active = GI50 up to about 1.1 µM and inactive = higher.

Key:
Experiment in all cases: growth of human tumour cells (NCI), 48 h
DLD-1 = system: DLD-1
LXFL 529 = system: LXFL 529
XF498 = system: XF498
DMS-273 = system: DMS-273
M19-MEL = system: M19-MEL
DMS-114 = system: DMS-114
RXF 631 = system: RXF 631
SNB-78 = system: SNB-78
HOP-18 = system: HOP-18

Row | SMILES | GI50 (DLD-1) | GI50 (LXFL 529) | GI50 (XF498) | GI50 (DMS-273) | GI50 (M19-MEL) | GI50 (DMS-114) | GI50 (RXF 631) | GI50 (SNB-78) | GI50 (HOP-18)
1 | O=C1C2Cc3ccccc3CN2C(=O)N1CN1CCCCC1 (stereo unspecified) | > 100 µM (inactive) | > 100 µM (inactive) | > 100 µM (inactive) | 50.8 µM (inactive) | > 100 µM (inactive) | > 100 µM (inactive) |  |  | 
2 | COc1cc(/C=C/C2=C(C#N)C(=O)OC2(C)C)ccc1O | 54 µM (inactive) |  |  | > 100 µM (inactive) | > 100 µM (inactive) |  | 93.1 µM (inactive) | > 100 µM (inactive) | > 100 µM (inactive)
3 | COC(=O)C1CCC(=O)N1/C(C)=N/NC(=O)Nc1ccc(Cl)c(Cl)c1 (stereo unspecified) | > 100 µM (inactive) | 28 µM (inactive) | > 100 µM (inactive) | > 100 µM (inactive) | > 100 µM (inactive) | > 100 µM (inactive) |  | > 100 µM (inactive) | 
4 | CSc1nc2c(ncn2C2OCC(O)C(O)C2O)c(=O)n1C (stereo unspecified) | > 100 µM (inactive) |  | > 100 µM (inactive) | > 100 µM (inactive) | > 100 µM (inactive) | > 100 µM (inactive) |  | > 100 µM (inactive) | > 100 µM (inactive)
5 | C=C/C(C)=C/[C@H](C)C(=O)C[C@H](O)CC1CC(=O)NC(=O)C1 | 44.2 µM (inactive) |  | 2.86 µM (inactive) | 34.9 µM (inactive) | 80.4 µM (inactive) | 38.3 µM (inactive) |  | 27.4 µM (inactive) | 19 µM (inactive)
6 | NC(=O)C1(c2ccccc2)Nc2ccccc2S1 (stereo unspecified) | > 100 µM (inactive) | > 100 µM (inactive) | > 100 µM (inactive) | > 100 µM (inactive) | > 100 µM (inactive) | > 100 µM (inactive) |  |  | > 100 µM (inactive)
7 | COc1ccc2cc1Oc1ccc(cc1)C[C@H]1c3cc(c(OC)cc3CCN1C)Oc1c(O)c(OC)cc3c1[C@H](C2)N(C)CC3 [FANGCHINOLINE] | 23.4 µM (inactive) |  | 27.4 µM (inactive) | 14.7 µM (inactive) | 22.6 µM (inactive) | 24.7 µM (inactive) |  | 40.7 µM (inactive) | 32.2 µM (inactive)
8 | N#C/C(=C\c1cccc(O)c1O)C(N)=O | 45.4 µM (inactive) | 50.6 µM (inactive) | 31.4 µM (inactive) | 57.3 µM (inactive) | 54.8 µM (inactive) | 29.9 µM (inactive) | 48.8 µM (inactive) | 52 µM (inactive) | 
9 | CN(C(=O)c1ccc(OCCCC(=O)O)c(Cl)c1Cl)C1CCCC1 | > 100 µM (inactive) |  | 28.4 µM (inactive) | > 100 µM (inactive) | > 100 µM (inactive) | 69.5 µM (inactive) |  | > 100 µM (inactive) | > 73.1 µM (inactive)
10 | CCOC(=O)c1ccc(N[C@@H]2c3cc4c(cc3C(c3cc(OC)c(O)c(OC)c3)[C@H]3C(=O)OCC32)OCO4)cc1 (stereo partly specified) | 1.44 µM (inactive) | 4.55 µM (inactive) | 0.726 µM (active) |  | 1.75 µM (inactive) | 0.56 µM (active) |  | 4.1 µM (inactive) | 
11 | CCCCOP1(=O)C=CC(Cl)=C(C)C1 (stereo unspecified) |  | 27.9 µM (inactive) | 19.2 µM (inactive) |  | 29.7 µM (inactive) | 25.1 µM (inactive) | 29.1 µM (inactive) |  | 44.5 µM (inactive)
12 | O=c1cnn(C2OC(CO)C(O)C2O)c(=S)[nH]1 (stereo unspecified) | 8.47 µM (inactive) | 11.5 µM (inactive) | > 100 µM (inactive) | 2.31 µM (inactive) | 43.1 µM (inactive) | 29.6 µM (inactive) | 14.3 µM (inactive) | > 91.2 µM (inactive) | > 79.1 µM (inactive)
13 | COC(=O)C1=COC2OC3/C(=C\c4ccc(O)c(OC)c4)C(=O)OC34C=CC1C24 (stereo unspecified) | 18.5 µM (inactive) | 13.5 µM (inactive) | 3.46 µM (inactive) | 16.3 µM (inactive) | 14.2 µM (inactive) | 24.7 µM (inactive) |  | 15.2 µM (inactive) | 
14 | COc1cc(C2c3cc4c(cc3[C@@H](Nc3ccc(N5CCOCC5)cc3)C3COC(=O)[C@H]23)OCO4)cc(OC)c1O (stereo partly specified) | 1.55 µM (inactive) |  | 0.392 µM (active) | 0.238 µM (active) | 1.71 µM (inactive) |  |  |  | 0.977 µM (active)
15 | ClCc1nnc2n1-c1ccc(Cl)cc1SC2 |  |  | 5.57 µM (inactive) | 2.92 µM (inactive) | 3.23 µM (inactive) | 2.8 µM (inactive) |  | 5.4 µM (inactive) | 2.92 µM (inactive)
16 | COc1cc(C2c3cc4c(cc3[C@@H](Nc3cccc(C(C)=O)c3)C3COC(=O)[C@H]23)OCO4)cc(OC)c1O (stereo partly specified) | 1.37 µM (inactive) |  | 0.573 µM (active) | 0.0497 µM (active) | 0.897 µM (active) | 0.505 µM (active) |  | 2.75 µM (inactive) | 1 µM (active)
17 | C/C([O-])=C(/c1nc(-c2ccc([N+](=O)[O-])o2)no1)[n+]1cc(C)ccc1C | 11.5 µM (inactive) |  | 7.48 µM (inactive) | 11.7 µM (inactive) | 5.19 µM (inactive) | 16.3 µM (inactive) |  | 20.7 µM (inactive) | 10.2 µM (inactive)
18 | O=C(O)c1ccccc1C(=O)c1ccco1 | > 100 µM (inactive) |  | > 100 µM (inactive) | > 100 µM (inactive) | > 100 µM (inactive) | > 100 µM (inactive) |  | > 100 µM (inactive) | > 100 µM (inactive)
19 | COc1cc2c(cc1OC)-c1c(cnn1C1OC(COC(C)=O)C(OC(C)=O)C(OC(C)=O)C1OC(C)=O)CC2 (stereo unspecified) | > 100 µM (inactive) | > 85.7 µM (inactive) |  | > 100 µM (inactive) | > 89.1 µM (inactive) | 72.6 µM (inactive) |  | > 100 µM (inactive) | 
20 | N/C(=N\O)N/N=C\c1cc([N+](=O)[O-])cc([N+](=O)[O-])c1O | > 37.2 µM (inactive) |  | 40.8 µM (inactive) | 2.72 µM (inactive) | 40.6 µM (inactive) | 6.08 µM (inactive) |  | > 100 µM (inactive) | > 100 µM (inactive)
21 | COc1ccc(Sc2ccccc2N)cc1 | 43.5 µM (inactive) | 41 µM (inactive) | 0.162 µM (active) | 30.6 µM (inactive) | 36.7 µM (inactive) | 29.8 µM (inactive) |  | 37.8 µM (inactive) | > 100 µM (inactive)
22 | Nc1nn(CC(O)CO)c(=O)s1 (stereo unspecified) | > 100 µM (inactive) | > 100 µM (inactive) | > 100 µM (inactive) | > 100 µM (inactive) | > 100 µM (inactive) | > 100 µM (inactive) | > 100 µM (inactive) |  | > 100 µM (inactive)
23 | CCCCCCCCCCCC1=C(O)C(=O)C=C(O)C1=O [EMBELIN] | 8.49 µM (inactive) |  |  | 4.72 µM (inactive) |  | 5.47 µM (inactive) |  | 9.66 µM (inactive) | 4.58 µM (inactive)
